Results: publication PMC2694832, “Pharmacokinetics, tissue distribution and mass balance of radiolabeled dihydroartemisinin in male rats” (Malaria Journal, 2009)

Experiment: Tissue distribution of [^14C] DHA
Type: in vivo, rats
Settings: for Distribution of radioactivity / % of total AUC / Half-lives of radioactivity / Tissue AUC of radioactivity / % total recovery: male rats i.v. 3 mg/20 μCi/kg; for % total recovery: all measured tissues
Description: Rats treated with a single [^14C] DHA dose of 3 mg/20 μCi/kg intravenously (5 rats per group) were anesthaetized by isofluorane and euthanized via cardiac puncture at 1, 6, 24, 48, 72, 96, and 192 hours, post-dosing. Blood, liver, brain, eyes, adrenals, muscle, lungs, heart, liver, kidneys, spleen, stomach, small intestine, large intestine, perirenal fat and bone marrow samples were removed from each animal by gross dissection. The gastrointestinal tract (GI) was separated into the stomach (oesophagus and stomach), small intestine, and large intestine. Contents were procured from each GI segment. After flushing with saline, these and other tissues were stored. Tissues were rinsed gently, but thoroughly with water to remove remaining traces of blood before storage. Dissecting instruments were also washed between tissue procurements to avoid cross-contamination.
For most of the tissues 20% (w/w) aqueous homogenates of the tissue were prepared. Aqueous homogenates of the faecal and GI content samples were also prepared. Metabolism cages were washed with a solution of 2% Count-off® and the volume was measured. Radioactivity in the plasma samples and in aliquots (approx. 0.02–1.0 ml) of urine and cage washings was determined. The blood cells (primarily erythrocytes), perirenal fat (approx. 0.2 g), bone marrow samples (approx. 0.1 ml), and approximately 300-μl aliquots of the homogenates of faeces, liver, kidneys, heart, brain, stomach and carcass were solubilized with SolvableTM tissue solubilizer (Perkin-Elmer Life and Analytical Sciences, Boston, MA). The homogenates of faeces, stomach content, and intestinal contents were extracted with 50% methanol for 24 hours. Aliquots of blood and pooled urine samples from selected intervals were also analysed for DHA content directly.
Total radioactivity in the collected tissue samples were quantified in duplicate. Weighed tissue aliquots (~0.2 g) were digested overnight in 2 ml of Solvable® tissue solubilizer (Perkin-Elmer Life and Analytical Sciences, Boston, MA) at 50°C. Coloured samples were decolourized by adding a maximum of 0.2 ml of 30% H2O2 for 30–60 minutes. Scintillation cocktail (Hyonic Fluor; Perkin-Elmer Boston. Massachusetts, USA) was then added and radioactivity determined in a Perkin-Elmer Tri-Carb 3100 TR scintillation spectrophotometer (Packard Instrument Co., Downers Grove, Illinois, USA). Faeces and intestinal contents were thoroughly homogenized before taking aliquots. Plasma was also analysed using the HPLC-ECD system to measure the concentration of unchanged DHA, as described by Li et al.

- Distribution of radioactivity (Lungs, 24 hr): 398.52 ng equivalents/tissue gram
- Distribution of radioactivity (Lungs, 48 hr): 305.34 ng equivalents/tissue gram
- Distribution of radioactivity (Lungs, 72 hr): 303.10 ng equivalents/tissue gram
- Distribution of radioactivity (Lungs, 96 hr): 236.70 ng equivalents/tissue gram
- Distribution of radioactivity (Lungs, 192 hr): 221.64 ng equivalents/tissue gram
- % of total AUC (Lungs): 2.03%
- Half-lives of radioactivity (Lungs): 86.19 ± 18.00 h
- Tissue AUC of radioactivity (Lungs): 85,916 ng·hr/g
- Tissue AUC of radioactivity (Lungs, listed as [^14C]-dihydroartemisinin): 85916 ± 12999 ng·h/g
- % of total AUC (Muscle): 0.86%
- Half-lives of radioactivity (Muscle): 64.45 ± 13.54 h
- Tissue AUC of radioactivity (Muscle): 36371 ± 6994 ng·h/g
- Distribution of radioactivity (Plasma, 1 hr): 591.34 ng equivalents/tissue gram
- Distribution of radioactivity (Plasma, 6 hr): 540.83 ng equivalents/tissue gram
- Distribution of radioactivity (Plasma, 24 hr): 216.03 ng equivalents/tissue gram
- Distribution of radioactivity (Plasma, 48 hr): 93.02 ng equivalents/tissue gram
- % of total AUC (Plasma): 0.49%
- Tissue AUC of radioactivity (Plasma): 20750 ± 1031 ng·h/g
- Half-lives of radioactivity (Plasma, listed as [^14C]-dihydroartemisinin): 75.57 ± 7.34 h
- Distribution of radioactivity (SI Content, 1 hr): 46426.85 ng equivalents/tissue gram
- Distribution of radioactivity (SI Content, 6 hr): 11387.30 ng equivalents/tissue gram
- Distribution of radioactivity (SI Content, 24 hr): 2283.61 ng equivalents/tissue gram
- Distribution of radioactivity (SI Content, 48 hr): 633.61 ng equivalents/tissue gram
- Distribution of radioactivity (SI Content, 72 hr): 575.05 ng equivalents/tissue gram
- Distribution of radioactivity (SI Content, 96 hr): 176.57 ng equivalents/tissue gram
- Distribution of radioactivity (SI Content, 192 hr): 250.03 ng equivalents/tissue gram
- % of total AUC (SI Content): 35.25%
- Half-lives of radioactivity (SI Content): 28.73 ± 9.05 h
- Tissue AUC of radioactivity (SI Content): 1492988 ± 63053 ng·h/g
- Distribution of radioactivity (Small intestine (SI), 1 hr): 8155.95 ng equivalents/tissue gram
- Distribution of radioactivity (Small intestine (SI), 6 hr): 3014.58 ng equivalents/tissue gram
- Distribution of radioactivity (Small intestine (SI), 24 hr): 821.84 ng equivalents/tissue gram
- Distribution of radioactivity (Small intestine (SI), 48 hr): 335.42 ng equivalents/tissue gram
- Distribution of radioactivity (Small intestine (SI), 72 hr): 389.72 ng equivalents/tissue gram
- Distribution of radioactivity (Small intestine (SI), 96 hr): 235.61 ng equivalents/tissue gram
- Distribution of radioactivity (Small intestine (SI), 192 hr): 304.12 ng equivalents/tissue gram
- % of total AUC (Small intestine (SI)): 3.10%
- Half-lives of radioactivity (Small intestine (SI)): 49.99 ± 34.89 h
- Tissue AUC of radioactivity (Small intestine (SI)): 131,264 ng·hr/g
- Tissue AUC of radioactivity (Small intestine (SI), listed as [^14C]-dihydroartemisinin): 131264 ± 24631 ng·h/g
- Distribution of radioactivity (Spleen, 1 hr): 4,387 ng equivalents/tissue gram
- Distribution of radioactivity (Spleen, 1 hr, listed as [^14C]-dihydroartemisinin): 4387.40 ng equivalents/tissue gram
- Distribution of radioactivity (Spleen, 6 hr): 3,685 ng equivalents/tissue gram
- Distribution of radioactivity (Spleen, 6 hr, listed as [^14C]-dihydroartemisinin): 3684.97 ng equivalents/tissue gram
- Distribution of radioactivity (Spleen, 24 hr): 3,061 ng equivalents/tissue gram
- Distribution of radioactivity (Spleen, 24 hr, listed as [^14C]-dihydroartemisinin): 3061.40 ng equivalents/tissue gram
- Distribution of radioactivity (Spleen, 48 hr): 4,216 ng equivalents/tissue gram
- Distribution of radioactivity (Spleen, 48 hr, listed as [^14C]-dihydroartemisinin): 4216.03 ng equivalents/tissue gram
- Distribution of radioactivity (Spleen, 72 hr): 4446.65 ng equivalents/tissue gram
- Distribution of radioactivity (Spleen, 96 hr): 4464.57 ng equivalents/tissue gram
- Distribution of radioactivity (Spleen, 192 hr): 5,170 ng equivalents/tissue gram
- Distribution of radioactivity (Spleen, 192 hr, listed as [^14C]-dihydroartemisinin): 5170.22 ng equivalents/tissue gram
- % of total AUC (Spleen): 14.58%
- Half-lives of radioactivity (Spleen): 114.02 ± 57.67 h
- Tissue AUC of radioactivity (Spleen): 617,495 ng·hr/g
- Tissue AUC of radioactivity (Spleen, listed as [^14C]-dihydroartemisinin): 617495 ± 410768 ng·h/g
- Distribution of radioactivity (Stomach Content, 1 hr): 36.03 ng equivalents/tissue gram
- Distribution of radioactivity (Stomach Content, 6 hr): 6289.79 ng equivalents/tissue gram
- Distribution of radioactivity (Stomach Content, 24 hr): 22.45 ng equivalents/tissue gram
- Distribution of radioactivity (Stomach Content, 48 hr): 98.12 ng equivalents/tissue gram
- Distribution of radioactivity (Stomach Content, 72 hr): 18.69 ng equivalents/tissue gram
- Distribution of radioactivity (Stomach Content, 96 hr): 11.76 ng equivalents/tissue gram
- Distribution of radioactivity (Stomach Content, 192 hr): 343.37 ng equivalents/tissue gram
- % of total AUC (Stomach Content): 0.53%
- Half-lives of radioactivity (Stomach Content): 16.75 ± 16.30 h
- Tissue AUC of radioactivity (Stomach Content): 22362 ± 98089 ng·h/g
- Distribution of radioactivity (Stomach, 1 hr): 1366.22 ng equivalents/tissue gram
- Distribution of radioactivity (Stomach, 6 hr): 932.33 ng equivalents/tissue gram
- Distribution of radioactivity (Stomach, 24 hr): 464.21 ng equivalents/tissue gram
- Distribution of radioactivity (Stomach, 48 hr): 342.30 ng equivalents/tissue gram
- Distribution of radioactivity (Stomach, 72 hr): 337.48 ng equivalents/tissue gram
- Distribution of radioactivity (Stomach, 96 hr): 229.69 ng equivalents/tissue gram
- Distribution of radioactivity (Stomach, 192 hr): 218.27 ng equivalents/tissue gram
- % of total AUC (Stomach): 1.94%
- Half-lives of radioactivity (Stomach): 72.58 ± 12.98 h
- Tissue AUC of radioactivity (Stomach): 82125 ± 13428 ng·h/g
- Distribution of radioactivity (Testis, 1 hr): 624.14 ng equivalents/tissue gram
- Distribution of radioactivity (Testis, 6 hr): 513.53 ng equivalents/tissue gram
- Distribution of radioactivity (Testis, 24 hr): 176.47 ng equivalents/tissue gram
- Distribution of radioactivity (Testis, 48 hr): 155.78 ng equivalents/tissue gram
- Distribution of radioactivity (Testis, 72 hr): 151.29 ng equivalents/tissue gram
- Distribution of radioactivity (Testis, 96 hr): 123.54 ng equivalents/tissue gram
- Distribution of radioactivity (Testis, 192 hr): 141.04 ng equivalents/tissue gram
- Tissue AUC of radioactivity (Testis): 48249 ± 6078 ng·h/g
- Half-lives of radioactivity (Testis, listed as [^14C]-dihydroartemisinin): 86.24 ± 40.68 h
- Half-lives of radioactivity (Total Amounts line): 69.03 ± 22.13 h
- Tissue AUC of radioactivity (Total Amounts line): 4234952.00 ng·h/g
- % total recovery (1 hr): 34.57%
- % total recovery (6 hr): 34.10%
- % total recovery (24 hr): 8.51%
- % total recovery (48 hr): 6.50%
- % total recovery (72 hr): 6.28%
- % total recovery (96 hr): 4.51%
- % total recovery (192 hr): ~5.53%
- radioactivity in whole blood higher than in plasma (throughout the period measured, rats i.v. 3 mg/20 μCi/kg): 1.8–4.6 fold
- total radioactivity found in the content of small intestine (within the first hour after i.v. dosing, rats): 53–86%
SMILES: C[C@@H]1CC[C@H]2[C@@H]([14CH3])C(O)O[C@@H]3O[C@@]4(C)CC[C@@H]1[C@]32OO4 (stereo partly drawn) [[^14C] DHA, [16-^14C] DHA]
